Assay results published in ChEMBL document CHEMBL3991601, “The target landscape of clinical kinase drugs” (Science, 2017).
Structures can show the parent of a compound that is named as a salt. Activity calls are given as the source filed them. For most assays here, no stated cut-off is given here; in the data, actives have a measured Kd and inactives only a lower limit.

Experiments:
[1] = target: Platelet-derived growth factor receptor beta (Homo sapiens, UniProt P09619)
[2] = target: Tyrosine-protein kinase Yes (Homo sapiens, UniProt P07947)
[3] = target: Glycogen synthase kinase-3 alpha (Homo sapiens, UniProt P49840)
Deoxycytidine kinase = Deoxycytidine kinase (Homo sapiens, UniProt P27707)
TGF-beta receptor type-2 = TGF-beta receptor type-2 (Homo sapiens, UniProt P37173)
[4] = target: Mitogen-activated protein kinase kinase kinase 20 (Homo sapiens, UniProt Q9NYL2)
Aurora kinase A = target: T1, Aurora kinase A (Homo sapiens, UniProt O14965)
T1 sequence (O14965 whole entry): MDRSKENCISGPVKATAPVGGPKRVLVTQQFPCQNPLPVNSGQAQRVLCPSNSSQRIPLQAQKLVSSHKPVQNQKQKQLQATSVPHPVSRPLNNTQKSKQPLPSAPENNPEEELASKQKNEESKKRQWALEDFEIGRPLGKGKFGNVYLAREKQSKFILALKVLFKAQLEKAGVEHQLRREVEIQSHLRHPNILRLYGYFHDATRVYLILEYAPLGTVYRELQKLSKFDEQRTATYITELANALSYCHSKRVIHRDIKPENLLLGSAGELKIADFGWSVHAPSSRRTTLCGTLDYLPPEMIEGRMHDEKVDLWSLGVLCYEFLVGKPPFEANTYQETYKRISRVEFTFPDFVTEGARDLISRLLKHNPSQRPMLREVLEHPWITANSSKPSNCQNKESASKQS

[5] = target: T2, AarF domain-containing protein kinase 1 (Homo sapiens, UniProt Q86TW2)
T2 sequence (Q86TW2 whole entry): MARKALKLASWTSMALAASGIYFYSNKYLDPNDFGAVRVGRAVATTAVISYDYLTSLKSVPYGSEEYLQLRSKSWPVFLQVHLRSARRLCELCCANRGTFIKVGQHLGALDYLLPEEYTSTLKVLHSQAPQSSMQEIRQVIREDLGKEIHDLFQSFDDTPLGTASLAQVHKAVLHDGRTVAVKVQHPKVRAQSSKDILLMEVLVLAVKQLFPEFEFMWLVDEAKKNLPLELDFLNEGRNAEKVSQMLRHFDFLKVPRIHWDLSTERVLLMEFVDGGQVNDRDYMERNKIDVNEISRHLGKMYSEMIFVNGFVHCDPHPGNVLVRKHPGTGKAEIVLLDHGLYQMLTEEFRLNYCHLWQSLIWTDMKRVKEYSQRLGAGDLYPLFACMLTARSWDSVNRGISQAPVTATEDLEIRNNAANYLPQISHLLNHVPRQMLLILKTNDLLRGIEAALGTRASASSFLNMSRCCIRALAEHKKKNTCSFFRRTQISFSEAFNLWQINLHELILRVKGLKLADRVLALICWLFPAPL

[6] = target: Serine/threonine-protein kinase SIK3 (Homo sapiens, UniProt Q9Y2K2)
[7] = target: T3, Dual specificity mitogen-activated protein kinase kinase 3 (Homo sapiens, UniProt P46734)
T3 sequence (P46734 whole entry): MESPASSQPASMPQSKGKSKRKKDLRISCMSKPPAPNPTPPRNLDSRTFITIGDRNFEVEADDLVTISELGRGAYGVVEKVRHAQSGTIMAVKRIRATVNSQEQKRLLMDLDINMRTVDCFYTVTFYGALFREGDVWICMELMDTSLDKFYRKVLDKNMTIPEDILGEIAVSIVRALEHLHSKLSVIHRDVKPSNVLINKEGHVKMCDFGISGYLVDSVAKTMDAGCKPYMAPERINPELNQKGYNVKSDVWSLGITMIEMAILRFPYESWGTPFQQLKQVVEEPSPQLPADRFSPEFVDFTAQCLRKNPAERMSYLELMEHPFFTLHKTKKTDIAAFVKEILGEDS

[8] = target: Dual specificity mitogen-activated protein kinase kinase 1 (Homo sapiens, UniProt Q02750)
[9] = target: T4, General transcription and DNA repair factor IIH helicase subunit XPD (Homo sapiens, UniProt P18074); settings: read-out: Kd apparent; k-562, colo 205, sk-n-be(2) and mv-4-11
T4 sequence (P18074 whole entry): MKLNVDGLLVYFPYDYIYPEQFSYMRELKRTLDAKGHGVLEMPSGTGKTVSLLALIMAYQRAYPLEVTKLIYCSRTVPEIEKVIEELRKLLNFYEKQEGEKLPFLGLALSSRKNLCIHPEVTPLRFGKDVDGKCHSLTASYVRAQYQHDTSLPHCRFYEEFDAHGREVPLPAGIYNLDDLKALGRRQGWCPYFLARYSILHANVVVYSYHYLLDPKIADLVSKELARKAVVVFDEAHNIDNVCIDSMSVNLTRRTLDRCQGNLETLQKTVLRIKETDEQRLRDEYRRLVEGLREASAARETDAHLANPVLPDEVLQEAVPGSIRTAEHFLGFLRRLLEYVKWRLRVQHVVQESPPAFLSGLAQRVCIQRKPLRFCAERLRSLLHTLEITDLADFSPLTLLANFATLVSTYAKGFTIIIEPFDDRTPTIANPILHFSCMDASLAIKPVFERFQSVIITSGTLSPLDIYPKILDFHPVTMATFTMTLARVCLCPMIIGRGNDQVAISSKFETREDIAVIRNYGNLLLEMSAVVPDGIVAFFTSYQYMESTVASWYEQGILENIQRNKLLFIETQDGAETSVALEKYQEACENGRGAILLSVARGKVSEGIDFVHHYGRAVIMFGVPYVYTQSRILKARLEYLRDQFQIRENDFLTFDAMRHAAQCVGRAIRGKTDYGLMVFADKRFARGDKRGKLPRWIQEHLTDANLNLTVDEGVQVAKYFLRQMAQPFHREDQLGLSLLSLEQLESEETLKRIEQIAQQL

[10] = target: Epithelial discoidin domain-containing receptor 1 (Homo sapiens, UniProt Q08345)
[11] = target: Tyrosine-protein kinase ABL2 (Homo sapiens, UniProt P42684)
Chain of Tyrosine-protein kinase ABL2 (P42684 whole entry): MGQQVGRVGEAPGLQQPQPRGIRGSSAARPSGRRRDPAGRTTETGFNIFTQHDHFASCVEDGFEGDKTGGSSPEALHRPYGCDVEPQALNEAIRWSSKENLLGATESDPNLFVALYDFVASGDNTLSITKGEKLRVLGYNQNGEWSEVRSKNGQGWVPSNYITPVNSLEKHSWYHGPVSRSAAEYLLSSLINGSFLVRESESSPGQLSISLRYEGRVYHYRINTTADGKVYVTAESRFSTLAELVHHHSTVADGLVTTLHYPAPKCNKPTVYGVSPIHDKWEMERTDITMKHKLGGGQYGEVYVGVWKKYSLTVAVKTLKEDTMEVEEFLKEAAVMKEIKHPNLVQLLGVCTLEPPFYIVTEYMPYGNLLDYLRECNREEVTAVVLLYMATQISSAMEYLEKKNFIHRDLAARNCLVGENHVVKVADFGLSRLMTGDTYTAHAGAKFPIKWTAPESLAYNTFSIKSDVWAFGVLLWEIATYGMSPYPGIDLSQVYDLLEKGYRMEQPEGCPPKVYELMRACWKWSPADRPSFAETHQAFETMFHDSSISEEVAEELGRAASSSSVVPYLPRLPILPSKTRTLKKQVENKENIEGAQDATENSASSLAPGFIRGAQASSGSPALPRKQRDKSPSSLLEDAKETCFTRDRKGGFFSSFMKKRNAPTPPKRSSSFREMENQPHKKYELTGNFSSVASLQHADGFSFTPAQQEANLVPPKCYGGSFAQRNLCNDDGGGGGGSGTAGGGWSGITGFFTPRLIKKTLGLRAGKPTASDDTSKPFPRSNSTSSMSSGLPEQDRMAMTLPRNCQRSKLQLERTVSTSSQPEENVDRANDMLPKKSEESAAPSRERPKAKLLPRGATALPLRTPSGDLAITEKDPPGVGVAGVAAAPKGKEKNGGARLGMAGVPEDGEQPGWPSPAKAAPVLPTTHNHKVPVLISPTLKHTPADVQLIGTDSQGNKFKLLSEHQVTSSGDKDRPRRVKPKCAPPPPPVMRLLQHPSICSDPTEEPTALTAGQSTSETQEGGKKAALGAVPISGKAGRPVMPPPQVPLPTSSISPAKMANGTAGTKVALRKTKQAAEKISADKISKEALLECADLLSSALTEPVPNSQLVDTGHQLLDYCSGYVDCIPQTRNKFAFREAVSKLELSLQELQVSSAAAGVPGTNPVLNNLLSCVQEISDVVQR

Chain of Mitogen-activated protein kinase kinase kinase 20 (Q9NYL2 whole entry): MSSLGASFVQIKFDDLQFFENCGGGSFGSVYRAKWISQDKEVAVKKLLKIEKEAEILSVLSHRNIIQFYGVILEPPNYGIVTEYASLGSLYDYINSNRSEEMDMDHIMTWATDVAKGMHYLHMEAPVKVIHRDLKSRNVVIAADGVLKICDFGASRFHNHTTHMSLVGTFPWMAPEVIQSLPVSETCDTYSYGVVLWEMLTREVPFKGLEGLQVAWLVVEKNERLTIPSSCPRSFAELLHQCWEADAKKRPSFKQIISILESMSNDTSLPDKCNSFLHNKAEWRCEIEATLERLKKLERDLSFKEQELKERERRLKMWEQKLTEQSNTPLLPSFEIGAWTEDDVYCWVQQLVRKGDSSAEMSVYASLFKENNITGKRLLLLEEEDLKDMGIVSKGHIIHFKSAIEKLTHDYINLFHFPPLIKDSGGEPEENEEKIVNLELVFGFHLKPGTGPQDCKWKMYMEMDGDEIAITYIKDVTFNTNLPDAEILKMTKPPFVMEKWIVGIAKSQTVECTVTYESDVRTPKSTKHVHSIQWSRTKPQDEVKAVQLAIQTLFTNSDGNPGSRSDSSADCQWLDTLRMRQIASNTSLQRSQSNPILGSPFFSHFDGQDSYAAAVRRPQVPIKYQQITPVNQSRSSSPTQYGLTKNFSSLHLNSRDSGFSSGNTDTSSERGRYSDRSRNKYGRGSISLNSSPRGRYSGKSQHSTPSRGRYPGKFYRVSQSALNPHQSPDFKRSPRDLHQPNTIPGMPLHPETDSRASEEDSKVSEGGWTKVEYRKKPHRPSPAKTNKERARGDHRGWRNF
Chain of Tyrosine-protein kinase Yes (P07947 whole entry): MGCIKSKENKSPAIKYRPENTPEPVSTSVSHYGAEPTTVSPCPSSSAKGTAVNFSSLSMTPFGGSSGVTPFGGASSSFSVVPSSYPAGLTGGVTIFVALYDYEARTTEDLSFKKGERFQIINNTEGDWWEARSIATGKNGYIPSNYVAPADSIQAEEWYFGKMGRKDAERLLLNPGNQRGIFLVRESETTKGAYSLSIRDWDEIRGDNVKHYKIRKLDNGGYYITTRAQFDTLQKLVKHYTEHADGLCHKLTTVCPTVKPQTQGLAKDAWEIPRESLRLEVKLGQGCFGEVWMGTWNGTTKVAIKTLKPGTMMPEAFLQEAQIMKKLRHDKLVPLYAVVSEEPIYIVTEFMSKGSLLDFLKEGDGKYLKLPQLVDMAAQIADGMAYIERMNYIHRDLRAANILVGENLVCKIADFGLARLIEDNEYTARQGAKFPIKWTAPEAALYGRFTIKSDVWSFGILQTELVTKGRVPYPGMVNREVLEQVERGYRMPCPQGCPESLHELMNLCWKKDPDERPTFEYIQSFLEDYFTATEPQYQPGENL
Chain of Dual specificity mitogen-activated protein kinase kinase 1 (Q02750 whole entry): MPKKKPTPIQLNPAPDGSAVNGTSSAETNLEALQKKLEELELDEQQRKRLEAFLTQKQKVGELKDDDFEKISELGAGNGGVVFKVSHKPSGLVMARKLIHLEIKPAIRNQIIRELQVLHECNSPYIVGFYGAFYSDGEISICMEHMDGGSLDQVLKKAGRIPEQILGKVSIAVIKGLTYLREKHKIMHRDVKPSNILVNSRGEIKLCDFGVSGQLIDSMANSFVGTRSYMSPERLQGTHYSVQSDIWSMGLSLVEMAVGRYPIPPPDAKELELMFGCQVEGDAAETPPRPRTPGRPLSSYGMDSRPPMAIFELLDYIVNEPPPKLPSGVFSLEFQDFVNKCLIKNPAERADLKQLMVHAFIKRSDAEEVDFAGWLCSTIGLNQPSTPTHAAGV
Chain of Serine/threonine-protein kinase SIK3 (Q9Y2K2 whole entry): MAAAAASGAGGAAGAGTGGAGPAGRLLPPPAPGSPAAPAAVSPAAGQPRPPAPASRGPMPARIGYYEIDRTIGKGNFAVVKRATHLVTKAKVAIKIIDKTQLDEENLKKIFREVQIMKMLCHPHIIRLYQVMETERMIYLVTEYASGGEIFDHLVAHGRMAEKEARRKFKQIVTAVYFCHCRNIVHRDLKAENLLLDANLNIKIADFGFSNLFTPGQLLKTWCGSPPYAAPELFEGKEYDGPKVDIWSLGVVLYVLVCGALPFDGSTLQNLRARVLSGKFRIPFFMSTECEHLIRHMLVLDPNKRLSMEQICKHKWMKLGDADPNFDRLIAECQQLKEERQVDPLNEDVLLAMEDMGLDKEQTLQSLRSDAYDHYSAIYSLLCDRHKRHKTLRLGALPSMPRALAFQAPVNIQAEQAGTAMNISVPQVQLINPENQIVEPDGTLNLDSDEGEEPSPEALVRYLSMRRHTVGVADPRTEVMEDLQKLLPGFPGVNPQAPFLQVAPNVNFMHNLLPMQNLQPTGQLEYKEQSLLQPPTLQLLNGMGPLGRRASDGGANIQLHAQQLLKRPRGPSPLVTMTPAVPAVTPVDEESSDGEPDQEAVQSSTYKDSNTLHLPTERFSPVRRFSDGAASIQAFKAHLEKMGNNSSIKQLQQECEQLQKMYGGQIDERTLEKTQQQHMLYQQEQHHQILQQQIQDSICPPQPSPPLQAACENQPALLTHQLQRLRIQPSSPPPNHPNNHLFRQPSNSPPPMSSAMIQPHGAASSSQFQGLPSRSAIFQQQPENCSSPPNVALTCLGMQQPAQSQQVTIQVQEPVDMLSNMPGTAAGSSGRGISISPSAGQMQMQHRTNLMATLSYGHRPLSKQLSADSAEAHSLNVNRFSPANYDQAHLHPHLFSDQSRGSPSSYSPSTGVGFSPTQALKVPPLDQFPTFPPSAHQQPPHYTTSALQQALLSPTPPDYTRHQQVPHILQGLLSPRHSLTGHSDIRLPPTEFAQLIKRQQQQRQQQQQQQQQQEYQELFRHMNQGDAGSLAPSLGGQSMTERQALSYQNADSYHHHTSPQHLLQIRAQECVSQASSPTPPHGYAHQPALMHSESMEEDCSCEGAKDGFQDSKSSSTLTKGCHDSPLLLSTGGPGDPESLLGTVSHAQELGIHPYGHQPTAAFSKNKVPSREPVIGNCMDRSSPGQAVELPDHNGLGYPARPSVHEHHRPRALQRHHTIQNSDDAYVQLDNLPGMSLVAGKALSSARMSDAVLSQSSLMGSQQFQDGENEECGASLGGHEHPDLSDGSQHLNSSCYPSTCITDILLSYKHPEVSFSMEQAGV
Chain of TGF-beta receptor type-2 (P37173 whole entry): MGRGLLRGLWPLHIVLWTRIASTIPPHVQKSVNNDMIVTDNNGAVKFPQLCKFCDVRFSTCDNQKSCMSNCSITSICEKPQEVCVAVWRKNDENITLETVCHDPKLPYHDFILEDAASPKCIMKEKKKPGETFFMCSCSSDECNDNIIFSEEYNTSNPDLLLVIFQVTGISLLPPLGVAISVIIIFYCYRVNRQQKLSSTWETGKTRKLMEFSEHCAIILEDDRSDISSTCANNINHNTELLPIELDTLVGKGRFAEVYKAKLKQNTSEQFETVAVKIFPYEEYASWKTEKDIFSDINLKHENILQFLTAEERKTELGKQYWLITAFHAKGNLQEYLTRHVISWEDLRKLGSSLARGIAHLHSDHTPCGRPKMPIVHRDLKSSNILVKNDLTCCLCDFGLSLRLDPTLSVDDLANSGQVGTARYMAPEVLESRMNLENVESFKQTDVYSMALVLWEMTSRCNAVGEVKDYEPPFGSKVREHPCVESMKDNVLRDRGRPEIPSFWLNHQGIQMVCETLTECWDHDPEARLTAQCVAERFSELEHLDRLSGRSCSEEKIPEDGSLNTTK
Chain of Deoxycytidine kinase (P27707 whole entry): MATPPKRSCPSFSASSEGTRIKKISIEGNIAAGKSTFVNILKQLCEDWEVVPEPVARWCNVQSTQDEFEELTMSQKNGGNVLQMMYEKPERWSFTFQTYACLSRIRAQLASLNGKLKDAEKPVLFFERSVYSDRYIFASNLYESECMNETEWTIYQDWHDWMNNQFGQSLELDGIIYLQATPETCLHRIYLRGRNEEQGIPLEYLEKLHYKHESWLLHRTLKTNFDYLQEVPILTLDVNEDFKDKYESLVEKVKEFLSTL

Compound	Kd [1]	Kd [2]	Kd [3]	Kd (Deoxycytidine kinase)	Kd (TGF-beta receptor type-2)	Kd [4]	Kd (Aurora kinase A)	Kd [5]	Kd [6]	Kd [7]	Kd [8]	Kd [9]	Kd [10]	Kd [11]
COc1cc([C@@H]2c3cc4c(cc3[C@H](O)[C@H]3COC(=O)[C@@H]23)OCO4)cc(OC)c1OC [AXL-1717]	> 30 µM (inactive)	> 30 µM (inactive)	> 30 µM (inactive)	> 30 µM (inactive)	> 30 µM (inactive)	> 30 µM (inactive)	> 30 µM (inactive)	> 30 µM (inactive)	> 30 µM (inactive)	> 30 µM (inactive)	> 30 µM (inactive)	> 30 µM (inactive)	> 30 µM (inactive)	> 30 µM (inactive)
COCC(=O)NC/C=C/c1ccc2ncnc(Nc3ccc(Oc4ccc(C)nc4)c(C)c3)c2c1 [CP-724714]	> 30 µM (inactive)	> 30 µM (inactive)	> 30 µM (inactive)	> 30 µM (inactive)	> 30 µM (inactive)	> 30 µM (inactive)	> 30 µM (inactive)	> 30 µM (inactive)	> 30 µM (inactive)	> 30 µM (inactive)	> 30 µM (inactive)	> 30 µM (inactive)	> 30 µM (inactive)	> 30 µM (inactive)
C#Cc1cccc(Nc2ncnc3cc(OC)c(OCCCCCCC(=O)NO)cc23)c1 [CUDC-101]	> 30 µM (inactive)	> 30 µM (inactive)	> 30 µM (inactive)	> 30 µM (inactive)	> 30 µM (inactive)	> 30 µM (inactive)	> 30 µM (inactive)	> 30 µM (inactive)	> 30 µM (inactive)	> 30 µM (inactive)	> 30 µM (inactive)	> 30 µM (inactive)	> 30 µM (inactive)	> 30 µM (inactive)
COc1ccc(S(=O)(=O)N(C(C)=O)c2ccccc2/C=C/c2cc[n+]([O-])cc2)cc1 [HMN-214]	> 30 µM (inactive)	> 30 µM (inactive)	> 30 µM (inactive)	> 30 µM (inactive)	> 30 µM (inactive)	> 30 µM (inactive)	> 30 µM (inactive)	> 30 µM (inactive)	> 30 µM (inactive)	> 30 µM (inactive)	> 30 µM (inactive)	> 30 µM (inactive)	> 30 µM (inactive)	> 30 µM (inactive)
CNC(=O)c1cccc2cc(Oc3ccnc4cc(OCC5(N)CC5)c(OC)cc34)ccc12 [LUCITANIB]	0.278 µM	> 30 µM (inactive)	> 30 µM (inactive)	> 30 µM (inactive)	> 30 µM (inactive)	> 30 µM (inactive)	> 30 µM (inactive)	> 30 µM (inactive)	> 30 µM (inactive)	> 30 µM (inactive)	> 30 µM (inactive)	> 30 µM (inactive)	0.014 µM (active)	> 30 µM (inactive)

More lines, now with the values ahead:

Kd [1]	Kd [2]	Kd [3]	Kd (Deoxycytidine kinase)	Kd (TGF-beta receptor type-2)	Kd [4]	Kd (Aurora kinase A)	Kd [5]	Kd [6]	Kd [7]	Kd [8]	Kd [9]	Kd [10]	Kd [11]	Compound
> 30 µM (inactive)	> 30 µM (inactive)	> 30 µM (inactive)	> 30 µM (inactive)	> 30 µM (inactive)	> 30 µM (inactive)	> 30 µM (inactive)	> 30 µM (inactive)	> 30 µM (inactive)	> 30 µM (inactive)	0.045 µM (active)	> 30 µM (inactive)	> 30 µM (inactive)	> 30 µM (inactive)	Cn1cnc2c(F)c(Nc3ccc(Br)cc3F)c(C(=O)NOCCO)cc21 [BINIMETINIB]
> 30 µM (inactive)	> 30 µM (inactive)	> 30 µM (inactive)	> 30 µM (inactive)	> 30 µM (inactive)	> 30 µM (inactive)	> 30 µM (inactive)	> 30 µM (inactive)	> 30 µM (inactive)	> 30 µM (inactive)	> 30 µM (inactive)	> 30 µM (inactive)	> 30 µM (inactive)	> 30 µM (inactive)	CCn1c(C(=O)N(C2CC2)C2CC2)cc2c3c(ncn3C)c(Nc3cc(C)n(C)n3)nc21 [BMS-911543]
> 30 µM (inactive)	> 30 µM (inactive)	> 30 µM (inactive)	> 30 µM (inactive)	> 30 µM (inactive)	> 30 µM (inactive)	> 30 µM (inactive)	> 30 µM (inactive)	> 30 µM (inactive)	> 30 µM (inactive)	> 30 µM (inactive)	> 30 µM (inactive)	> 30 µM (inactive)	> 30 µM (inactive)	Cc1cc(Nc2ncc(Cl)c(Nc3ccccc3S(=O)(=O)C(C)C)n2)c(OC(C)C)cc1C1CCNCC1 [CERITINIB]
0.203 µM (active)	> 30 µM (inactive)	> 30 µM (inactive)	> 30 µM (inactive)	> 30 µM (inactive)	> 30 µM (inactive)	> 30 µM (inactive)	> 30 µM (inactive)	13.6 µM (active)	1.48 µM (active)	> 30 µM (inactive)	> 30 µM (inactive)	> 30 µM (inactive)	> 30 µM (inactive)	CCS(=O)(=O)N1CCN(c2ccc(Nc3ncc(C(N)=O)c(NC4CC4)n3)cc2)CC1 [Cerdulatinib Hydrochloride]
> 30 µM (inactive)	> 30 µM (inactive)	> 30 µM (inactive)	> 30 µM (inactive)	> 30 µM (inactive)	> 30 µM (inactive)	> 30 µM (inactive)	> 30 µM (inactive)	> 30 µM (inactive)	> 30 µM (inactive)	> 30 µM (inactive)	> 30 µM (inactive)	> 30 µM (inactive)	> 30 µM (inactive)	Cc1nc2cc(-n3ncc(C(=O)c4cc5ccccc5[nH]4)c3N)ccc2[nH]1 [FGFR INHIBITOR DEBIO 1347]
> 30 µM (inactive)	> 30 µM (inactive)	> 30 µM (inactive)	> 30 µM (inactive)	> 30 µM (inactive)	> 30 µM (inactive)	> 30 µM (inactive)	> 30 µM (inactive)	> 30 µM (inactive)	> 30 µM (inactive)	> 30 µM (inactive)	> 30 µM (inactive)	> 30 µM (inactive)	> 30 µM (inactive)	Cc1cccc(-c2nn3c(c2-c2ccnc4ccc(C(N)=O)cc24)CCC3)n1 [GALUNISERTIB]
